US10351915B2 (Berg LLC, priority 2009, dated 2019)

Key:
Caspase-3 = assay: Western blot of building block components, Caspase-3 expression; type: cell-based
Protocol: (§1) Skmel-28 melanoma cells were cultured in DMEM/F12 supplemented with 5% Fetal Bovine Serum (FBS) and 1× final concentration of Antibiotics. The cells were grown to 85% confluency and treated with building block components for 3, 6, 12 and 24 hours. The cells were then pelleted and a Western blot analysis was performed.
(§2) In the Western Blot Analysis, the cells were pelleted in cold PBS, lysed, and the protein levels were quantified using a BCA protein assay. The whole cell lysate was loaded in a 4% loading 12% running Tris-HCl gel. The proteins were then transferred to a nitrocellulose paper then blocked with a 5% milk Tris-buffered solution for 1 hour. The proteins were then exposed to primary antibodies (Bcl-2 and Caspase-3) overnight. The nitrocellulose paper was then exposed to Pico Chemilluminescent for 5 min and the protein expression was recorded. After exposure, actin was quantified using the same method. Using ImageJ the levels of protein expression were quantified. A t-Test was used to analyze for statistical significance.

Bcl-2 = assay: Western blot of building block components, Bcl-2 expression; type: cell-based
Protocol: as §1, §2

Melanoma cells = assay: Cell proliferation assay (cell count); type: cell-based
Protocol: The first study examined the effect of combining 4-Hydroxy-Benzoate with Benzoquinone. Cells were incubated for 48 hours, after which a cell count was performed for the live cells. Each test group was compared to the control, and each combination groups were compared to Benzoquinone control. The compounds were statistically analyzed for the addition of Benzoquinone.
Additional studies were performed testing additional molar ratios. For the first test 4-Hydroxybenzoic were tested at concentrations of 500 nM, 1 μM, and 50 μM. These concentrations were tested in combination with 2,3-Dimethoxy-5-methyl-p-benzoquinone (Benzo). The concentration of Benzo tested were 25 μM, 50 μM, and […]. Melanoma cells were grown to 80% confluency and seeded in 6 well plates at a concentration of 40K cells per well. The cells were treated with CoQ10, 4-Hydroxybenzoate, Benzo, and a combination of 4-Hydroxybenzoate/Benzo.
A T-test was performed with p<0.05 as statistically significant.

pancreatic cancer = conditions: 5 mg/kg (Group H), after 28 days
HDFa cells = assay: Extracellular acidification rate (ECAR), SeaHorse XF analyzer; type: cell-based, human; conditions: HDFa
From the text: (SeaHorse Biosciences Inc, North Billerica, Mass.).
In this experiment, the OCR and extracellular acidification rate (ECAR) in normal cells lines were obtained in the presence and absence of CoQ10 to determine baseline values. It was observed that in its native nutrient environment, the basal OCR rates in normal cells lines are different, and are usually a function of the physiological roles of the cells in the body.
Table 127 below describes the ECAR values (mpH/min) in HDFa cells in the presence or absence of CoQ10 under normoxic and hypoxic conditions at 5.5 mM and 22 mM glucose.

[1] = concentration not given, 24 hours
[2] = all concentrations and time points tested

SMILES: NC(Cc1ccccc1)C(=O)O (racemic) [DL-Phenylalanine]
- Caspase-3 expression (Caspase-3; concentration not given, 3 hours): statistically significant increase
- Bcl-2 expression (Bcl-2; [1]): statistically significant decrease

SMILES: O=C(O)c1ccc(O)cc1 [4-Hydroxybenzoate, 4-hydroxy-benzoate]
- cell number (live cells) vs control (Melanoma cells; 48 hours): significant decrease
- cell proliferation (Melanoma cells; HB 500 nM, 1 μM, 50 μM, p<0.05): significant decrease

SMILES: CC(=O)SCCNC(=O)CCNC(=O)[C@H](O)C(C)(C)COP(=O)(O)OP(=O)(O)OC[C@H]1O[C@@H](n2cnc3c(N)ncnc32)[C@H](O)[C@@H]1OP(=O)(O)O [Acetyl-CoA]
- Caspase-3 expression (Caspase-3; [2]): no significant observed reduction in Bcl-2 or increase in Caspase-3 expression

SMILES: CC(=O)NCC(=O)O [Acetylglycine]
- Bcl-2 expression (Bcl-2; 10 μM, 24 hour): significant decrease

SMILES: N[C@H](Cc1ccccc1)C(=O)O [D-Phenylalanine]
- Bcl-2 expression (Bcl-2; 10 μM, 6 hours): significant reduction

SMILES: N[C@H](Cc1ccc(O)cc1)C(=O)O [D-Tyrosine]
- Caspase-3 expression (Caspase-3; 1 μM, 12 hour): increase
- Caspase-3 expression (Caspase-3; 1 μM, 24 hour): increase

SMILES: COc1cccc2c1C(=O)c1c(O)c3c(c(O)c1C2=O)C[C@@](O)(C(=O)CO)C[C@@H]3O[C@H]1C[C@H](N)[C@H](O)[C@H](C)O1 [Doxorubicin, reference compound]
- survival (pancreatic cancer): a significant number of the animals in Group H had died

SMILES: C[C@@](O)(CCO)CC(=O)O [Mevalonic Acid, mevalonic acid]
- Caspase-3 expression (Caspase-3; [2]): no significant reduction in Bcl-2 expression or an increase in Caspase-3 expression

SMILES: Cc1ncc(CO)c(CO)c1O [Pyridoxine, pyridoxine]
- Bcl-2 expression (Bcl-2; [1]): significant reduction

SMILES: COc1cc(C(O)C(=O)O)ccc1O (stereo not shown) [VMA, 3-methoxy-4-hydroxymandelate]
- apoptotic effect (Bcl-2; 100 nM to 100 μM): no statistically significant apoptotic effect

SMILES: COc1cc(C(=O)O)ccc1O [Vanillic Acid, vanillic acid]
- Bcl-2 expression (Bcl-2; 500 nM, 24 hour): significantly reduce

SMILES: COC1=C(OC)C(=O)C(C/C=C(\C)CC/C=C(\C)CC/C=C(\C)CC/C=C(\C)CC/C=C(\C)CC/C=C(\C)CC/C=C(\C)CC/C=C(\C)CC/C=C(\C)CCC=C(C)C)=C(C)C1=O [compound 31510]
- ECAR (HDFa cells; Hypoxia (5.5 mM) glucose, 50 μM): 5 mpH/min
- ECAR (HDFa cells; Hypoxia (5.5 mM) glucose, 100 μM): 5 mpH/min
- ECAR (HDFa cells; Hypoxia (22 mM) glucose, 50 μM): 6 mpH/min
- ECAR (HDFa cells; Hypoxia (22 mM) glucose, 100 μM): 8 mpH/min
- ECAR (HDFa cells; Normoxia (5.5 mM) glucose, 50 μM): 6 mpH/min
- ECAR (HDFa cells; Normoxia (5.5 mM) glucose, 100 μM): 6 mpH/min
- ECAR (HDFa cells; Normoxia (22 mM) glucose, 50 μM): 5 mpH/min
- ECAR (HDFa cells; Normoxia (22 mM) glucose, 100 μM): 5 mpH/min
